This assay has as its system EpCAM+ epithelial cells in intestinal organoids. The assay is described as follows: Intestinal organoids from small intestine cultured with IFNγ, MHC class-II expression. In kind it is cell-based, mouse. Conditions: organoids from B6.MHC class-II-GFP or B6.WT mice cultured with IFNγ. From the text: High levels of IFN-γ are secreted by both ILC1 and by conventional T cells in the small intestine. The mechanisms controlling MHC class-II expression by IEC, focusing on interferon (IFN) γ signalling were delineated, since this cytokine is known to potently induce MHC class-II expression. […] To understand the potential sources of IFNγ driving the expression of MHC class II, Rag^−/− common-γ-chain^−/− which lack innate lymphocyte populations, and Rag^−/− mice that lack only conventional TCR-rearranged T cells, were analyzed. […] After TBI-induced inflammation, conventional T cells were required for the upregulation of MHC class II in the ileum. […] In contrast, TBI induced IFN-γ secretion from conventional T cells (CD4^+ Tcon, CD8^+ Tcon) but not innate lymphocyte populations (not shown). […] Thus, constitutive MHC class-II expression on IEC in the ileum causes local T cell activation and IFNγ secretion, consistent with the induction of a local cytokine feed-forward cascade that amplifies MHC class-II expression on IEC. In order to confirm that the induction of MHC class-II expression by IEC was a direct effect of IFNγ, intestinal organoids were cultured from the small intestine of B6.MHC class-II-GFP or B6.WT mice with IFNγ.

This is an account of results in patent US20220023419A1, “INHIBITING INFLAMMATION” (THE COUNCIL OF THE QUEENSLAND INSTITUTE OF MEDICAL RESEARCH, priority 2018, published 2022).

As for “IFNγ: cytokine added to intestinal organoid cultures; known to potently induce MHC class-II expression”, the “MHC class-II expression by EpCAM+ epithelial cells in organoids” value was “did so rapidly in the presence of IFNγ”.
